Source: ChEMBL document CHEMBL4020733, “Approaches towards the development of chimeric DPP4/ACE inhibitors for treating metabolic syndrome” (Bioorg Med Chem Lett, 2017)

What was measured:
[1] = AUC (0 to 24 hrs) in Wistar rat plasma at 30 mg/kg, po; assay type: ADME, organism-based; design: time < 24 hr, dose 30 mg/kg, route oral
Cytochrome P450 2C19 = Cytochrome P450 2C19 (Homo sapiens, UniProt P33261); assay: Inhibition of CYP2C19 (unknown origin) up to 10 uM; assay type: ADME
Dipeptidyl peptidase 2 = Dipeptidyl peptidase 2 (Homo sapiens, UniProt Q9UHL4); assay: Inhibition of DPP2 (unknown origin)
[2] = molecular target: T1, Angiotensin-converting enzyme (Mus musculus, UniProt P09470); assay: Inhibition of ob/ob mouse plasma ACE
T1 sequence (P09470 whole entry): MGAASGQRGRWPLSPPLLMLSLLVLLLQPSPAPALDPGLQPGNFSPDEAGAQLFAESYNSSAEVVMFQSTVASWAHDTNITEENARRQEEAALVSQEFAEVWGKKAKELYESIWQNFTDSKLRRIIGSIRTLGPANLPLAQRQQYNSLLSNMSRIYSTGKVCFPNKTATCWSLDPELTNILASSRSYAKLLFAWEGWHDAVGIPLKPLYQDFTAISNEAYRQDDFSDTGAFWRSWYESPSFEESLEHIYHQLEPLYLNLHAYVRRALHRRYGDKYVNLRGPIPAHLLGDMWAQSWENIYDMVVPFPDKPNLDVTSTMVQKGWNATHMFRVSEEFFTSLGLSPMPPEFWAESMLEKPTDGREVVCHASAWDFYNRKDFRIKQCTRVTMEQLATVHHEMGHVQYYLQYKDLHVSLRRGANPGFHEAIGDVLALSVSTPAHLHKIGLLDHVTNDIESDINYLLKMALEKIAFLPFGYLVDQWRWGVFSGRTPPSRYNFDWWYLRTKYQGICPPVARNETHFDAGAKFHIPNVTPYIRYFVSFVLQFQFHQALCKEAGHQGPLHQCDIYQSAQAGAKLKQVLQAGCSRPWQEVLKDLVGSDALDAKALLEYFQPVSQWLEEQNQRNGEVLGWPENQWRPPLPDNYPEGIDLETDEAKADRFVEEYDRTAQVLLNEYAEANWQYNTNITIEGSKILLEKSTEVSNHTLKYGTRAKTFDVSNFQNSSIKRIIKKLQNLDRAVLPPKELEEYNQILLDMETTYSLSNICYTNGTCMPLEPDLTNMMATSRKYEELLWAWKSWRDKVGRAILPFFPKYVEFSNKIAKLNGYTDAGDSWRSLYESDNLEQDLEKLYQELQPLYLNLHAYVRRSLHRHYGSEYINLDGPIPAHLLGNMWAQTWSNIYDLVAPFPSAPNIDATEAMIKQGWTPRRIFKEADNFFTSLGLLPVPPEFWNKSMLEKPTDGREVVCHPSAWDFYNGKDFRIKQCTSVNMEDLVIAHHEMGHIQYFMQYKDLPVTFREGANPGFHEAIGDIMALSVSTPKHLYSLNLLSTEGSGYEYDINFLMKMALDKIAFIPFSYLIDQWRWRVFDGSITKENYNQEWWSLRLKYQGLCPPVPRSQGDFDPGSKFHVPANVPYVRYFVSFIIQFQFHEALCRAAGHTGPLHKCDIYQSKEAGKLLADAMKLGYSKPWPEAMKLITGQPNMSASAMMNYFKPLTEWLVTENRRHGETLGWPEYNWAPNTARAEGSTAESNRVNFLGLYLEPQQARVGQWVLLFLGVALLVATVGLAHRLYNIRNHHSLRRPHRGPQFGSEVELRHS

Cytochrome P450 3A4 = Cytochrome P450 3A4 (Homo sapiens, UniProt P08684); assay: Inhibition of CYP3A4 (unknown origin) up to 10 uM; assay type: ADME
Aminopeptidase N = Aminopeptidase N (Homo sapiens, UniProt P15144); assay: Inhibition of APN (unknown origin)
[3] = Inhibition of APP (unknown origin); design: species or system Homo sapiens
Cytochrome P450 2D6 = Cytochrome P450 2D6 (Homo sapiens, UniProt P10635); assay: Inhibition of CYP2D6 (unknown origin) up to 10 uM; assay type: ADME
[4] = Cmax in Wistar rat plasma at 30 mg/kg, po; assay type: ADME, organism-based; design: dose 30 mg/kg, route oral
Liver [5] = assay: Stability in mouse liver microsomes; assay type: ADME, microsome
Liver [6] = assay: Stability in human liver microsomes; assay type: ADME, microsome
Dipeptidyl peptidase 4 = Dipeptidyl peptidase 4 (Rattus norvegicus, UniProt P14740); assay: Inhibition of Wistar rat plasma DPP4
Cytochrome P450 1A2 = molecular target: T2, Cytochrome P450 1A2 (Homo sapiens, UniProt P05177); assay: Inhibition of CYP1A2 (unknown origin) up to 10 uM; assay type: ADME
T2 sequence (P05177 whole entry): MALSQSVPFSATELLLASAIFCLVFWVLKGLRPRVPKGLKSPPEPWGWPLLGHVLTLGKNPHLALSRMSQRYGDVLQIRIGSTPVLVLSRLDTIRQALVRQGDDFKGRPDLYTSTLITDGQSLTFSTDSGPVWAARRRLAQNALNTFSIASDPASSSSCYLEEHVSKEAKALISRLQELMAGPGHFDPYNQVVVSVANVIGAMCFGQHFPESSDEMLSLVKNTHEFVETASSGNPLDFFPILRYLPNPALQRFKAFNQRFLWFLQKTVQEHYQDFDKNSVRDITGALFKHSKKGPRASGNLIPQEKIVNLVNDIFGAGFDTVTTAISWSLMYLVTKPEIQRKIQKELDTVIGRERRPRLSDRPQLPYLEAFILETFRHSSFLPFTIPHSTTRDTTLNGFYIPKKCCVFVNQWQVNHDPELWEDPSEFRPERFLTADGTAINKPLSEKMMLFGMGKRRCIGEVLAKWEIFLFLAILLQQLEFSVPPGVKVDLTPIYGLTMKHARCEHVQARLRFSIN

[7] = Plasma protein binding in mouse; assay type: ADME, cell-free; details: read-out: PPB (converted)
Liver [8] = assay: Stability in dog liver microsomes; assay type: ADME, Canis lupus familiaris, microsome
Liver [9] = assay: Stability in rat liver microsomes; assay type: ADME, microsome

Cytochrome P450 3A4, sequence (P08684 whole entry): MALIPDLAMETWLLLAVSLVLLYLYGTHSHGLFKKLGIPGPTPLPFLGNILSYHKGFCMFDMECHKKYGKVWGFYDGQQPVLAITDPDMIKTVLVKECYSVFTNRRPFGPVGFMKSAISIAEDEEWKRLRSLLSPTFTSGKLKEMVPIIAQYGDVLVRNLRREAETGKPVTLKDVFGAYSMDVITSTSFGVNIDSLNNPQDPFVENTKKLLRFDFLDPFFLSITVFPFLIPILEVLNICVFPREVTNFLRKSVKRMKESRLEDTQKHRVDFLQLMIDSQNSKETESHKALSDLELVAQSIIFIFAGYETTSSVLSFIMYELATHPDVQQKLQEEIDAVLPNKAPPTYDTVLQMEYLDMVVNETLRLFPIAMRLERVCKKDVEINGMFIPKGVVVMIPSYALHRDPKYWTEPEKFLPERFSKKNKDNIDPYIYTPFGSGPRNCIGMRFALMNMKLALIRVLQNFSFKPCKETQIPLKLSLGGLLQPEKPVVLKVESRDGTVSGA
Cytochrome P450 2C19, sequence (P33261 whole entry): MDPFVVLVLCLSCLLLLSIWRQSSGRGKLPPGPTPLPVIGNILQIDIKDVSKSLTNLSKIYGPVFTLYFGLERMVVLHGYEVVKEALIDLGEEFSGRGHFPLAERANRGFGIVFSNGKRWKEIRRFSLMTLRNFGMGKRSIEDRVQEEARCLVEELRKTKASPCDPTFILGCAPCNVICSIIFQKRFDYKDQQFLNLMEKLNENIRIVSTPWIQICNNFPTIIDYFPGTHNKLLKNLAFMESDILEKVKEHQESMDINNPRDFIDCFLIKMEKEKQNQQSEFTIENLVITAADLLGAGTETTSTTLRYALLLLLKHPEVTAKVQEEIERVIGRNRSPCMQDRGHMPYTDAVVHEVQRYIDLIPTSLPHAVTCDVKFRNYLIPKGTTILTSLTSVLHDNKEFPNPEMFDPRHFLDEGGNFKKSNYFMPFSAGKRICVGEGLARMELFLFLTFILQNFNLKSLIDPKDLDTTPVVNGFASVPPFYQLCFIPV
Dipeptidyl peptidase 4, sequence (P14740 whole entry): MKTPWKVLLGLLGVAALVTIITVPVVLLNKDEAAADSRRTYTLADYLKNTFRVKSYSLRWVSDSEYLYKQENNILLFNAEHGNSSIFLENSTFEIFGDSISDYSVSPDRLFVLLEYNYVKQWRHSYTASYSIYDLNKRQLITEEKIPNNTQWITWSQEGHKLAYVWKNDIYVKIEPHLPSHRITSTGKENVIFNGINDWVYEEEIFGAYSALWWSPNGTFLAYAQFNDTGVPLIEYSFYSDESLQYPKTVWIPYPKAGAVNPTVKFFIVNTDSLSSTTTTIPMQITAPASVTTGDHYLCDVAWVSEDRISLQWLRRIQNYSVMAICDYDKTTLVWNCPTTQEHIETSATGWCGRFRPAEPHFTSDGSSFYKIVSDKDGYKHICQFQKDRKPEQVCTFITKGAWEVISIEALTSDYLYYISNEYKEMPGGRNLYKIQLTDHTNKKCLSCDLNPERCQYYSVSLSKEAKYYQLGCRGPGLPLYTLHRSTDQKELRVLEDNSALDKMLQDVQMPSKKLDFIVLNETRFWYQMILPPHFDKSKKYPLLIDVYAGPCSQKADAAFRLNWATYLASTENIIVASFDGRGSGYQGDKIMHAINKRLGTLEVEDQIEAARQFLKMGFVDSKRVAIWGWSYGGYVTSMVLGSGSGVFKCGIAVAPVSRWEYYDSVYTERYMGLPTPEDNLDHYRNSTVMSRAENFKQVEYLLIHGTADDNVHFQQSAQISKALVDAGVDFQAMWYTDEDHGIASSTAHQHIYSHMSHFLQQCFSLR
Aminopeptidase N, sequence (P15144 whole entry): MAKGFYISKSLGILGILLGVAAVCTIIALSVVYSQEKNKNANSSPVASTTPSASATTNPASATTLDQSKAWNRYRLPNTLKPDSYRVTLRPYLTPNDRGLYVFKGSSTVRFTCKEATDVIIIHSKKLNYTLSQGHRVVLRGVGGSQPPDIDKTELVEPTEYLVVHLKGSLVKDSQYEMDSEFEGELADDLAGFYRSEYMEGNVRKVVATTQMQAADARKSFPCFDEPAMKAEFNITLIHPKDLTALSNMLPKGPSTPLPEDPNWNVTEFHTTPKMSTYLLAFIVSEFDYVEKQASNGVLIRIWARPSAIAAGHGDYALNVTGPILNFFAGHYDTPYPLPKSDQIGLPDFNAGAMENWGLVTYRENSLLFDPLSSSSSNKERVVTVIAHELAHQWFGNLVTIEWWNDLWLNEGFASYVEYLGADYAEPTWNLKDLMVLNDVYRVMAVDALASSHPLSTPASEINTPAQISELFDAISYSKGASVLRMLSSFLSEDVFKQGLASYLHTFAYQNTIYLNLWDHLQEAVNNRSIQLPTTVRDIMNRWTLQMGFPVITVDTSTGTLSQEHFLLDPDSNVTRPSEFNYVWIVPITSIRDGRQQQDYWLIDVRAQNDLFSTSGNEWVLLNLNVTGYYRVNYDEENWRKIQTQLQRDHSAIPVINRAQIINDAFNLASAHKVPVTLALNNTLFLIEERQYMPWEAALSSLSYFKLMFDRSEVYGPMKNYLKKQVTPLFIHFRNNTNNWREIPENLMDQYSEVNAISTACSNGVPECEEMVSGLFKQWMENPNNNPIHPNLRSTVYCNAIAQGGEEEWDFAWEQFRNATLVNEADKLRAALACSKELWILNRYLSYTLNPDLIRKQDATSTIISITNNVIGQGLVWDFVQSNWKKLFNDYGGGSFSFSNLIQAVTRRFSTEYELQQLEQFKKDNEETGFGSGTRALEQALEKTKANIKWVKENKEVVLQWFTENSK
Cytochrome P450 2D6, sequence (P10635 whole entry): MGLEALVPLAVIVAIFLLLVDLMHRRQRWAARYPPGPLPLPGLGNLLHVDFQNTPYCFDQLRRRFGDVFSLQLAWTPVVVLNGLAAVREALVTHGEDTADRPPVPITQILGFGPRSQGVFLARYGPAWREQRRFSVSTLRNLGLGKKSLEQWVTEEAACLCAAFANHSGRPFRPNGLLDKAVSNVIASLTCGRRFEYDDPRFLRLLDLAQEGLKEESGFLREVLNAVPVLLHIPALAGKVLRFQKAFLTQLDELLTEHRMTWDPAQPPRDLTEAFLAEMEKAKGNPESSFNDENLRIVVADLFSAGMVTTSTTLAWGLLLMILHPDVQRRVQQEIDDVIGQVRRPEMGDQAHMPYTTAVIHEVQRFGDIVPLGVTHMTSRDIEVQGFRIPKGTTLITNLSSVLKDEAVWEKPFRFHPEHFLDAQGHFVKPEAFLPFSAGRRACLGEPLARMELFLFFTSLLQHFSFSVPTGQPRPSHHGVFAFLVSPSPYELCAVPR

| SMILES | AUC(0-t) at 24 h [1] [ng·h/mL] | inhibition (INH) (Cytochrome P450 2C19) | IC50 (Dipeptidyl peptidase 2) [µM] | IC50 [2] [µM] | inhibition (INH) (Cytochrome P450 3A4) | IC50 (Aminopeptidase N) [µM] | IC50 [3] [µM] | inhibition (INH) (Cytochrome P450 2D6) | Cmax [4] [ng/mL] | Stability (Liver [5]) | Stability (Liver [6]) | IC50 (Dipeptidyl peptidase 4) [µM] | inhibition (INH) (Cytochrome P450 1A2) | fraction unbound [7] | Stability (Liver [8]) | Stability (Liver [9]) |
| --- | --- | --- | --- | --- | --- | --- | --- | --- | --- | --- | --- | --- | --- | --- | --- | --- |
| CC[C@H](N[C@@H](CCc1ccccc1)C(=O)O)C(=O)N1C[C@@H](NC(=O)C[C@H](N)Cc2cc(F)c(F)cc2F)C[C@H]1C(=O)O | 2360 | Not Active | > 100 | 0.1 | Not Active | > 100 | > 100 | Not Active | 550 | Stable | Stable | 0.319 | Not Active | 0.129 | Stable | Stable |
| CCC[C@H](N[C@@H](CCc1ccccc1)C(=O)O)C(=O)N1C[C@@H](NC(=O)C[C@H](N)Cc2cc(F)c(F)cc2F)C[C@H]1C(=O)O | 21500 | Not Active | > 100 | 2.02 | Not Active | > 100 | > 100 | Not Active | 2500 | Stable | Stable | 1.23 | Not Active | 0.015 | Stable | Stable |
| CCCC[C@H](N[C@@H](CCc1ccccc1)C(=O)O)C(=O)N1C[C@@H](NC(=O)C[C@H](N)Cc2cc(F)c(F)cc2F)C[C@H]1C(=O)O | 13900 | Not Active | > 100 | 2.21 | Not Active | > 100 | > 100 | Not Active | 1330 | Stable | Stable | 4.17 | Not Active | 0.014 | Stable | Stable |
| C[C@H](N[C@@H](CCc1ccccc1)C(=O)O)C(=O)N1C[C@@H](NC(=O)C[C@H](N)Cc2cc(F)c(F)cc2F)C[C@H]1C(=O)O | 610 | Not Active | > 100 | 0.058 | Not Active | > 100 | > 100 | Not Active | 260 | Stable | Stable | 0.155 | Not Active | 0.51 | Stable | Stable |
